Values of other authors in patent publication US4256737A, “Long acting depot injectable formulations for LH-RH analogues” (Syntex (U.S.A.) Inc., priority 1979, dated 1981).

Details: background statement

**Q.** With “(pyro)Glu-His-Trp-Ser-Tyr-Gly-Leu-Arg-Pro-Gly-NH2 [natural LH-RH]” as the substance, how does the biological halflife read?
**A.** 1-2 hours
